PubChem BioAssay AID248 (DTP/NCI, 2004)
“And” between values parts separate entries of the source, which are not always exact repeats. Identical values can stand only once. Inconclusive results and toxic doses are left out.

Test system: L1210 leukemia ip in BDF1 mice, survival T/C
Assay: NCI In Vivo Anticancer Drug Screen. Data for tumor model L1210 Leukemia (intraperitoneal) in B6D2F1 (BDF1) mice
Details: endpoint: mean survival time, higher = longer survival
Method in brief: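 Mice bearing the transplanted tumor received compound or vehicle. Survival of the treated group was divided by that of the vehicle-treated control group to give the ratio.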

[1] = dose: 100.0 mg/kg/injection, schedule: Q04DX003 (ip), vehicle: Klucel (hydroxypropylcellulose) (HPC)
[2] = dose: 200.0 mg/kg/injection, schedule: Q04DX003 (ip), vehicle: Klucel (hydroxypropylcellulose) (HPC)
[3] = dose: 400.0 mg/kg/injection, schedule: Q04DX003 (ip), vehicle: Klucel (hydroxypropylcellulose) (HPC)
[4] = dose: 100.0 mg/kg/injection, schedule: Q01DX009 (ip), vehicle: saline with Tween-80
[5] = dose: 200.0 mg/kg/injection, schedule: Q01DX009 (ip), vehicle: saline with Tween-80
[6] = dose: 100.0 mg/kg/injection, schedule: Q01DX001 (ip), vehicle: Klucel (hydroxypropylcellulose) (HPC)
[7] = dose: 200.0 mg/kg/injection, schedule: Q01DX001 (ip), vehicle: Klucel (hydroxypropylcellulose) (HPC)
[8] = dose: 100.0 mg/kg/injection, schedule: Q01DX001 (ip), vehicle: saline
[9] = dose: 200.0 mg/kg/injection, schedule: Q01DX001 (ip), vehicle: saline
[10] = dose: 400.0 mg/kg/injection, schedule: Q01DX001 (ip), vehicle: saline
[11] = dose: 100.0 mg/kg/injection, schedule: Q04DX002 (ip), vehicle: saline with Tween-80
[12] = dose: 200.0 mg/kg/injection, schedule: Q04DX002 (ip), vehicle: saline with Tween-80

## CS(=O)(=O)OCCN(CCOS(C)(=O)=O)c1cccc([N+](=O)[O-])c1
dose: 1.0 mg/kg/injection, schedule: Q01DX001 (ip), vehicle: saline
  T/C: 101 % of control
dose: 2.0 mg/kg/injection, schedule: Q01DX001 (ip), vehicle: saline
  T/C: 101 % of control
dose: 4.0 mg/kg/injection, schedule: Q01DX001 (ip), vehicle: saline
  T/C: 101 % of control
dose: 8.0 mg/kg/injection, schedule: Q01DX001 (ip), vehicle: saline
  T/C: 102 % of control
dose: 152.0 mg/kg/injection, schedule: Q01DX001 (ip), vehicle: saline
  T/C: 113 % of control
dose: 228.0 mg/kg/injection, schedule: Q01DX015 (ip), vehicle: saline
  T/C: 118 % of control
dose: 342.0 mg/kg/injection, schedule: Q01DX001 (ip), vehicle: saline
  T/C: 95 % of control
dose: 342.0 mg/kg/injection, schedule: Q01DX015 (ip), vehicle: saline
  T/C: 92 % of control
dose: 1024.0 mg/kg/injection, schedule: Q01DX001 (ip), vehicle: saline
  T/C: 102 % of control

## CCCC(C)C(=O)c1ccccc1 (stereo not drawn)
dose: 100.0 mg/kg/injection, schedule: Q01DX009 (ip), vehicle: Klucel (hydroxypropylcellulose) (HPC)
  T/C: 96 % of control
[1]
  T/C: 103 % of control
dose: 200.0 mg/kg/injection, schedule: Q01DX009 (ip), vehicle: Klucel (hydroxypropylcellulose) (HPC)
  T/C: 93 % of control
[2]
  T/C: 110 % of control
dose: 400.0 mg/kg/injection, schedule: Q01DX009 (ip), vehicle: Klucel (hydroxypropylcellulose) (HPC)
  T/C: 96 % of control
[3]
  T/C: 108 % of control

## Cn1ncc2c(N)[nH]nc21
dose: 75.0 mg/kg/injection, schedule: Q01DX001 (ip), vehicle: saline
  T/C: 107 % of control
dose: 150.0 mg/kg/injection, schedule: Q01DX001 (ip), vehicle: saline
  T/C: 90 % of control
dose: 300.0 mg/kg/injection, schedule: Q01DX001 (ip), vehicle: saline
  T/C: 98 % of control

## CC(=O)OCCC(=O)N1Cc2cc3ccccc3nc2C1
dose: 10.0 mg/kg/injection, schedule: Q04DX003 (ip), vehicle: alcohol
  T/C: 96 % of control
dose: 20.0 mg/kg/injection, schedule: Q04DX003 (ip), vehicle: alcohol
  T/C: 94 % of control
dose: 40.0 mg/kg/injection, schedule: Q04DX003 (ip), vehicle: alcohol
  T/C: 96 % of control
dose: 80.0 mg/kg/injection, schedule: Q04DX003 (ip), vehicle: alcohol
  T/C: 96 % of control
dose: 160.0 mg/kg/injection, schedule: Q04DX003 (ip), vehicle: alcohol
  T/C: 92 % of control

## CC1CC(=O)Nc2ccccc2N1 (stereo not drawn)
[1]
  T/C: 97 % of control
[2]
  T/C: 100 % of control
[3]
  T/C: 103 % of control

## CN1CCC(CO)(c2ccccc2)C1 (stereo not drawn)
dose: 75.0 mg/kg/injection, schedule: Q01DX001 (ip), vehicle: carboxymethylcellulose (CMC)
  T/C: 96 % of control
dose: 150.0 mg/kg/injection, schedule: Q01DX001 (ip), vehicle: carboxymethylcellulose (CMC)
  T/C: 98 % of control

## C(=C\c1ccccc1)/CSc1ncnc2nc[nH]c12
dose: 62.5 mg/kg/injection, schedule: Q01DX015 (ip), vehicle: saline
  T/C: 106 % of control
dose: 125.0 mg/kg/injection, schedule: Q01DX015 (ip), vehicle: saline
  T/C: 116 % of control
dose: 250.0 mg/kg/injection, schedule: Q01DX015 (ip), vehicle: saline
  T/C: 104 % of control
dose: 500.0 mg/kg/injection, schedule: Q01DX015 (ip), vehicle: saline
  T/C: 166 % of control

## CC(C)C/C=C/C1CCCCC1 (tested in a mixture with another compound)
dose: 50.0 mg/kg/injection, schedule: Q01DX009 (ip), vehicle: saline with Tween-80
  T/C: 101 % of control
[4]
  T/C: 93 % of control
[5]
  T/C: 97 % of control

## O=c1c2c3ccccc3c(=O)c=2c2ccccc12
[6]
  T/C: 98 % of control
[7]
  T/C: 103 % of control

## COc1ccc(-c2[nH]c3ccccc3c2-c2ccc(OC)cc2)cc1
[8]
  T/C: 89 % of control
[9]
  T/C: 89 % of control
[10]
  T/C: 95 % of control

## CN(C)CCCOS(C)(=O)=O
[11]
  T/C: 105 % of control
[12]
  T/C: 99 % of control

## SC1c2ccccc2-c2ccc(Br)cc21 (stereo not drawn)
[8]
  T/C: 101 % of control
[9]
  T/C: 99 % of control
[10]
  T/C: 97 % of control

## Nc1nc(-c2ccccc2)c(CCCOc2ccccc2)c(=O)[nH]1
dose: 12.5 mg/kg/injection, schedule: Q01DX009 (ip), vehicle: gum acacia
  T/C: 95 % of control
dose: 25.0 mg/kg/injection, schedule: Q01DX009 (ip), vehicle: gum acacia
  T/C: 109 % of control
dose: 50.0 mg/kg/injection, schedule: Q01DX009 (ip), vehicle: gum acacia
  T/C: 100 % of control
dose: 100.0 mg/kg/injection, schedule: Q01DX009 (ip), vehicle: gum acacia
  T/C: 92 % of control and 90 % of control
dose: 400.0 mg/kg/injection, schedule: Q01DX009 (ip), vehicle: gum acacia
  T/C: 96 % of control

## O=C1NC(=O)c2ccc(Br)c3cccc1c23
dose: 100.0 mg/kg/injection, schedule: Q04DX002 (ip), vehicle: Klucel (hydroxypropylcellulose) (HPC)
  T/C: 96 % of control
dose: 200.0 mg/kg/injection, schedule: Q04DX002 (ip), vehicle: Klucel (hydroxypropylcellulose) (HPC)
  T/C: 96 % of control
dose: 400.0 mg/kg/injection, schedule: Q04DX002 (ip), vehicle: Klucel (hydroxypropylcellulose) (HPC)
  T/C: 93 % of control

## O=C1c2ccccc2C(=O)N1CNc1cccc(Cl)c1
[4]
  T/C: 88 % of control
[11]
  T/C: 102 % of control
[5]
  T/C: 91 % of control
[12]
  T/C: 105 % of control
dose: 400.0 mg/kg/injection, schedule: Q04DX002 (ip), vehicle: saline with Tween-80
  T/C: 97 % of control

## CCOC(=O)C(C)C(O)c1ccc(OC)cc1 (stereo not drawn)
[4]
  T/C: 93 % of control
[5]
  T/C: 93 % of control

## CC1(C)N=C(N)N=C(N)N1c1ccc(CC(=O)Nc2cccc(S(=O)(=O)F)c2)cc1
dose: 6.25 mg/kg/injection, schedule: Q#A X018 (ip), vehicle: saline
  T/C: 105 % of control
dose: 12.5 mg/kg/injection, schedule: Q01DX009 (ip), vehicle: saline
  T/C: 103 % of control
dose: 12.5 mg/kg/injection, schedule: Q#A X018 (ip), vehicle: saline
  T/C: 111 % of control
dose: 25.0 mg/kg/injection, schedule: Q01DX009 (ip), vehicle: saline
  T/C: 111 % of control
dose: 50.0 mg/kg/injection, schedule: Q01DX009 (ip), vehicle: saline
  T/C: 117 % of control and 118 % of control
dose: 50.0 mg/kg/injection, schedule: Q#A X018 (ip), vehicle: saline
  T/C: 118 % of control
[8]
  T/C: 100 % of control
[9]
  T/C: 102 % of control

## CCN=C(N)c1ccc(N=C(N)c2ccc(C(N)=Nc3ccc(C(N)=NCC)cc3)cc2)cc1
dose: 7.5 mg/kg/injection, schedule: Q01DX Z (oral), vehicle: saline
  T/C: 98 % of control
dose: 15.0 mg/kg/injection, schedule: Q01DX Z (ip), vehicle: saline
  T/C: 258 % of control
dose: 15.0 mg/kg/injection, schedule: Q01DX Z (oral), vehicle: saline
  T/C: 100 % of control
dose: 30.0 mg/kg/injection, schedule: Q01DX Z (oral), vehicle: saline
  T/C: 102 % of control
dose: 60.0 mg/kg/injection, schedule: Q01DX Z (oral), vehicle: saline
  T/C: 102 % of control
dose: 125.0 mg/kg/injection, schedule: Q## X010 (oral), vehicle: saline
  T/C: 103 % of control
dose: 150.0 mg/kg/injection, schedule: Q01DX Z (oral), vehicle: saline
  T/C: 89 % of control
dose: 250.0 mg/kg/injection, schedule: Q## X010 (oral), vehicle: saline
  T/C: 195 % of control

## CCCCNC(=O)C(C)S(=O)(=O)c1ccc(N)cc1 (stereo not drawn)
dose: 100.0 mg/kg/injection, schedule: Q04DX003 (ip), vehicle: saline with Tween-80
  T/C: 98 % of control
dose: 200.0 mg/kg/injection, schedule: Q04DX003 (ip), vehicle: saline with Tween-80
  T/C: 96 % of control
dose: 400.0 mg/kg/injection, schedule: Q04DX003 (ip), vehicle: saline with Tween-80
  T/C: 102 % of control

## COc1ccc(C2CCCN(C)O2)cc1 (stereo not drawn)
dose: 100.0 mg/kg/injection, schedule: Q01DX001 (ip), vehicle: acetone
  T/C: 102 % of control
dose: 200.0 mg/kg/injection, schedule: Q01DX001 (ip), vehicle: acetone
  T/C: 91 % of control
dose: 400.0 mg/kg/injection, schedule: Q01DX001 (ip), vehicle: acetone
  T/C: 98 % of control

## O=C1c2ccccc2C(=O)N1C1C=CC=CC=C1
[6]
  T/C: 95 % of control
[1]
  T/C: 91 % of control
[7]
  T/C: 93 % of control
[2]
  T/C: 91 % of control
dose: 400.0 mg/kg/injection, schedule: Q01DX001 (ip), vehicle: Klucel (hydroxypropylcellulose) (HPC)
  T/C: 90 % of control
[3]
  T/C: 93 % of control
